Test results from paper PMC6168434 (European journal of medicinal chemistry, 2018).

What was measured:
[1] = target: yeast 20S proteasome (yCP) yβ5 (Saccharomyces cerevisiae, UniProt P23724+P30656); experiment: Purified yeast proteasome inhibition, yβ5; type: biochemical
MCF7 = conditions: MCF7, relative to CysB; cited from earlier work
cancer cells = experiment: Western blot and flow cytometry analysis of treated cancer cells; type: cell-based; conditions: Figure S4
hcCP β5 in MCF7 cells = experiment: Cellular infiltration: β5 inhibition in intact versus lysed MCF7 cells; type: cell-based, human; conditions: one hour treatment, relative to 1
[2] = target: human immunoproteasome hiβ5 (Homo sapiens, UniProt P20618+P28062); experiment: Purified human immunoproteasome β5; type: biochemical; conditions: purified human immunoproteasomes 8 μg/mL, Suc-LLVY-AMC

SMILES	fold decreased IC50 for yβ5 versus yβ1 [1] [fold]	times more cytotoxic than CysB (MCF7)	apoptosis (flow cytometry) (cancer cells)	cell cycle (flow cytometry) (cancer cells)	ubiquitinated proteins (Western blot) (cancer cells)	times more capable of crossing the cell membrane than 1 (hcCP β5 in MCF7 cells)	isoform preference hiβ5 versus yβ5 [2]
CC(C)[C@H](NC(=O)[C@@H](NC(=O)[C@@H]1OC(=O)[C@H]1C(C)C)C(C)C)C(=O)O [Cystargolide B, reference compound]	50	–	–	–	–	–	–
CC(C)[C@H](NC(=O)[C@@H]1OC(=O)[C@H]1C(C)C)C(=O)N[C@H](C(=O)OCc1ccccc1)C(C)C [Compound 1]	–	over 10 times	induced apoptosis	arrested cells in the G2/M phase	accumulation of ubiquitinated proteins	–	–
CC[C@H](C)[C@@H]1C(=O)O[C@H]1C(=O)N[C@H](C(=O)N[C@H](C(=O)OCc1ccccc1)C(C)C)C(C)C [Compound 2, benzyl((2R,3S)-3-((S)-sec-butyl)-4-oxooxetane-2-carbonyl)-L-valyl-L-valinate]	–	–	induced apoptosis	arrested cells in the G2/M phase	accumulation of ubiquitinated proteins	approximately 10 times	slight preference for hiβ5
CC[C@H](C)[C@@H]1C(=O)O[C@H]1C(=O)N[C@H](C(=O)N[C@@H](COCc1ccccc1)C(=O)OCc1ccccc1)C(C)C [Compound 5k, benzylO-benzyl-N-(((2R,3S)-3-((S)-sec-butyl)-4-oxooxetane-2-carbonyl)-L-valyl)-L-serinate]	–	–	–	–	–	–	slight preference for hiβ5
